Results from patent US7368565B2, “Methods for preparation of cytotoxic conjugates of maytansinoids and cell binding agents” (Immunogen Inc., priority 2001, dated 2008).

Experiments:
[1] = tested on: P388 lymphocytic leukemia system; conditions: in vivo; suggested a high therapeutic index; cited from earlier work
[2] = tested on: human nasopharyngeal carcinoma cells; conditions: cited from earlier work
[3] = tested on: human acute lymphoblastic leukemia line CEM; conditions: in vitro; cited from earlier work
[4] = more cytotoxic; cited from earlier work
L1210 cells = L1210 cells treated in vivo; untreated control mitotic index 3.2 to 5.8%; cited from earlier work
[5] = tested on: Lewis lung carcinoma system; conditions: in vivo; cited from earlier work
[6] = tested on: P388, L1210, and LY5178 murine leukemic cell suspensions; conditions: in vitro; P388 line the most sensitive; cited from earlier work
[7] = tested on: L1210 mouse leukemia system; conditions: in vivo; cited from earlier work
[8] = tested on: B-16 melanocarcinoma system; conditions: in vivo; cited from earlier work
[9] = tested on: A431 cells constitutively expressing the antigen for huN901 (NCAM/CD56); experiment: in vitro cytotoxicity (colony formation) towards antigen-expressing cells; assay type: cell-based, human; conditions: 5 to 7 days incubation; for IC50: surviving fraction, FIG. 1, read-out: IC50 in killing antigen positive cells
Description: The huN901-DM1 conjugates prepared by this new, one step method were evaluated for in vitro cytotoxicity towards antigen-expressing cells as follows. A clone of A431 cells constitutively expressing the antigen for huN901 (NCAM/CD56) were used in this assay. Cells were plated into 6-well tissue-culture treated plates at a density of 2×10^3 cells/well in 2 ml of DMEM medium supplemented with 10% fetal calf serum and penicillin+streptomycin. A huN901-DM1 conjugate or the control huN901 antibody was added to the wells at the time of plating, and the cultures were incubated in a tissue culture incubator at 37° C., 6% CO2, for 5 to 7 days to form colonies not smaller than 25 cells/colony. The plates were then washed with PBS, and then fixed/stained for 30 min at room temperature with 10% formaldehyde/0.2% (w/v) Crystal Violet in PBS. The wells were rinsed 3 times with water, dried by air, and the colonies were counted under a dissection low magnification microscope. The surviving fractions were calculated as the number of colonies in drug-treated well/number of colonies in non-treated well.

## COc1cc2cc(c1Cl)N(C)C(=O)C[C@H](OC(=O)[C@H](C)N(C)C(C)=O)[C@]1(C)O[C@H]1[C@H](C)[C@@H]1C[C@@](O)(NC(=O)O1)[C@H](OC)/C=C/C=C(\C)C2 [maytansine]
[1]
  dosage range over which tumor growth was inhibited: 50- to 100 fold
[2]
  inhibition of in vitro growth: active inhibitor
[3]
  concentrations at which the line was inhibited: ≥ 10^−7 mg/ml
[4]
  cytotoxicity relative to conventional cancer chemotherapeutic agents like methotrexate, daunorubicin, and vincristine: 100 to 1000 fold
L1210 cells
  cells accumulating in mitosis: 67%
[5]
  inhibitory activity: significant inhibitory activity
[6]
  doses at which cell suspensions were inhibited: 10^−3 to 10^−1 μg/μl
[7]
  inhibitory activity: significant inhibitory activity
[8]
  inhibitory activity: significant inhibitory activity

B1: huN901-DM1 conjugate (Sephadex G25): huN901 antibody conjugated in one step with maytansinoid 2, Sephadex G25 purified, average 2.08 DM1 per antibody (conjugate, chains of the INN, looked up)
VH: QVQLVESGGGVVQPGRSLRLSCAASGFTFSSFGMHWVRQAPGKGLEWVAYISSGSFTIYYADSVKGRFTISRDNSKNTLYLQMNSLRAEDTAVYYCARMRKGYAMDYWGQGTLVTVSS
VL: DVVMTQSPLSLPVTLGQPASISCRSSQIIIHSDGNTYLEWFQQRPGQSPRRLIYKVSNRFSGVPDRFSGSGSGTDFTLKISRVEAEDVGVYYCFQGSHVPHTFGQGTKVEIK
modifications: DM1 maytansinoid conjugate
notes: huN901 antibody conjugated in one step with maytansinoid 2, Sephadex G25 purified, average 2.08 DM1 per antibody
[9]
  IC50: 0.1 nM

B2: huN901-DM1 conjugate (Sephacryl S300): huN901 antibody conjugated in one step with maytansinoid 2, Sephacryl S300 purified, average 1.61 DM1 per antibody (conjugate, chains of the INN, looked up)
VH: B1 VH
VL: B1 VL
modifications: DM1 maytansinoid conjugate
notes: huN901 antibody conjugated in one step with maytansinoid 2, Sephacryl S300 purified, average 1.61 DM1 per antibody
[9]
  IC50: 0.1 nM

B3: huN901: control unconjugated antibody whose antigen is NCAM/CD56 (antibody, chains of the INN, looked up, V domains shown)
VH: B1 VH
VL: B1 VL
[9]; FIG. 1
  toxicity to antigen positive cells: non-toxic
